Experimental data: PMC6034706 (ChemMedChem, 2017)
Like-named read-outs stand apart in the source and are kept apart here.

What was measured:
[1] = target: T1, VIM2 (Escherichia coli, UniProt Q5U7L7); test: biochemical; format: biochemical, P. aeruginosa; conditions: for IC50: 5 nM VIM-2, 10 μM nitrocefin
[2] = tested on: E. coli; test: Cell viability assay, bacterial growth; format: cell-based; conditions: for growth inhibition activity on its own: wild-type E. coli, without amoxicillin; for relative percentage growth, E. coli, Amox (+): with 50 μM amoxicillin; for relative percentage growth, E. coli, Amox (+) / relative percentage growth, E. coli, Amox (−): relative to untreated cells; for relative percentage growth, E. coli, Amox (−): compound alone
[3] = tested on: VIM2 expressing E. coli; format: cell-based; conditions: for growth inhibition activity on its own: VIM2-expressing E. coli, without amoxicillin; for relative percentage growth, VIM2 expressing E. coli, Amox (+): with 50 μM amoxicillin; for relative percentage growth, VIM2 expressing E. coli, Amox (+) / relative percentage growth, VIM2 expressing E. coli, Amox (−): relative to untreated cells; for relative percentage growth, VIM2 expressing E. coli, Amox (−): compound alone
[4] = target: T1, VIM2; format: biochemical, P. aeruginosa; conditions: 50 μM compound, 5 nM VIM-2, 10 μM nitrocefin, 30 mins
[5] = target: T1, VIM2; design: species or system P. aeruginosa; conditions: 6 and 12 μM inhibitor, 6 μM VIM-2, ICP-AES
[6] = Plasma stability study, human plasma; format: in vitro ADME; conditions: 10 μM, 37 °C, pooled plasma
[7] = tested on: human embryonic kidney HEK 293 cell lines; conditions: cited from earlier work
[8] = tested on: VIM-2 expressing E. coli; test: Half maximal effective concentration; format: cell-based; conditions: in the presence of 50 μM amoxicillin
[9] = tested on: all eleven HDACs; conditions: earlier studies ref [10]; cited from earlier work
[10] = Plasma stability study, mouse plasma; format: in vitro ADME; conditions: 10 μM, 37 °C, pooled plasma
[11] = tested on: O=C(Cc1cccs1)N[C@@H]1C(=O)N2C(C(=O)O)=C(/C=C/c3ccc([N+](=O)[O-])cc3[N+](=O)[O-])CS[C@H]12; test: purified protein, by the assay type; conditions: other: 50 mM potassium phosphate buffer, pH 7.0, room temperature
[12] = competitive-inhibition fit, nitrocefin substrate

On1ccccc1=S [Compound 2, 1-Hydroxypyridine-2-thione]
Ki [1]: 217 nM
growth inhibition activity on its own [2]: over 89%
growth inhibition activity on its own [3]: over 89%

C[C@]1(Cn2ccnn2)[C@H](C(=O)O)N2C(=O)C[C@H]2S1(=O)=O [Tazobactam]
% Inhibition at 50 μM [4]: 25%

[Na+].[O-]n1ccccc1=S [Compound 2b]
IC50 [1]: 908 nM
Ki [1, 12]: 217 nM
% Inhibition at 50 μM [4]: 93%

O=C(O)CN(CCN(CC(=O)O)CC(=O)O)CC(=O)O [EDTA]
metal content of VIM-2 with increasing inhibitor concentration [5]: inverse relationship

CC1(C)S[C@@H]2[C@H](NC(=O)[C@H](N)c3ccc(O)cc3)C(=O)N2[C@H]1C(=O)O [Amox, amoxicillin]
inhibition at 50 µM ([2]; Escherichia coli, read-out: growth inhibition by amoxicillin alone): > 96%
relative percentage growth, E. coli, Amox (+) [2]: 3.6%
relative percentage growth, VIM2 expressing E. coli, Amox (+) [3]: 77%
relative percentage growth, VIM2 expressing E. coli, Amox (+) ([3]; listed as amoxicillin): ineffective

O=C(O)[C@H]1/C(=C/CO)O[C@@H]2CC(=O)N21 [Clavulanate]
relative percentage growth, VIM2 expressing E. coli, Amox (+) ([3]; listed as clavulanic acid): ineffective
% Inhibition at 50 μM [4]: 15%

O=C(CCCCCCC(=O)Nc1ccccc1)NO [SAHA]
relative percentage growth, E. coli, Amox (−) [2]: 83%
relative percentage growth, E. coli, Amox (+) [2]: 3.6%
relative percentage growth, VIM2 expressing E. coli, Amox (−) [3]: 79%
relative percentage growth, VIM2 expressing E. coli, Amox (+) [3]: 60%

C[C@H](CS)C(=O)N1CCC[C@H]1C(=O)O [L-Captopril]
metal content of VIM-2 with increasing inhibitor concentration [5]: relatively unaffected
growth inhibition activity on its own [2]: moderate antibacterial activity
growth inhibition activity on its own [3]: moderate antibacterial activity
% Inhibition at 50 μM [4]: 98%

O=C(O)c1cccc(=S)n1O [Compound 3, 1-hydroxypyridine-2(1H)-thiones-6-carboxylic acid]
Human Plasma t1/2 [6]: 11.7 min
Ki [1]: 0.013 nM
IC50 [1]: 270 nM
LE (ligand efficiency) ([1]; LE = -1.38 log (Ki) / N, N = number of heavy atoms): 0.99
Ki [1, 12]: 13 nM
CC50 [7]: 97400 nM
EC50 [8]: 110 nM
relative percentage growth, E. coli, Amox (−) [2]: 77%
growth inhibition activity on its own [2]: moderate antibacterial activity
relative percentage growth, E. coli, Amox (+) [2]: 3.6%
range of selectivity among HDACs [9]: ~5000 fold
growth inhibition activity on its own [3]: moderate antibacterial activity
relative percentage growth, VIM2 expressing E. coli, Amox (−) [3]: 61%
relative percentage growth, VIM2 expressing E. coli, Amox (+) [3]: 3.2%
% Inhibition at 50 μM [4]: 98%
Mouse Plasma t1/2 [10]: 12.7 min

VIM-2 (Escherichia coli)
kcat [11]: 212 s⁻¹
